Converted amounts (≈) assume the structure as drawn. “Also recorded” adds a separate entry of the source. Read-outs that look alike come from different tables or passages of the source.

In experiment [1] the target is S. aureus methionyl-tRNA synthetase (MRS) (Staphylococcus aureus, UniProt Q5HII6). As to the kind of experiment: t-RNA synthetase biochemical assay (MRS). The conditions noted are these: average of two replicates with s.d.
Experiment [2] concerns S. aureus WCUH29 wild type. As to the kind of experiment: MIC broth microdilution. In kind it is cell-based, Staphylococcus aureus. The following applies: for MIC: Staphylococcus aureus, WCUH29WILDTYPE
A general note: Dilution methods test growth across graded concentrations, often in twofold steps.

Experiment [3] deals with S. aureus RN4220 (pYH4) and RN4220 (pYH4-MRS). As to the kind of experiment: MoA study: MIC in MRS overexpressor strain. It is filed as cell-based, Staphylococcus aureus. The following applies: for MIC: Staphylococcus aureus.
For experiment [4], the target named is S. aureus isoleucyl-tRNA synthetase (IRS) (Staphylococcus aureus, UniProt P41972). As to the kind of experiment: t-RNA synthetase biochemical assay (IRS). The following applies: average of two replicates with s.d.
Experiment [5] has as its target S. aureus methionine aminopeptidase, MetAP (Staphylococcus aureus, UniProt P0A078). As to the kind of experiment: MetAP biochemical assay (fluorescence intensity coupled). The conditions noted are these: average of two replicates with s.d. The source says: (§1) 368 Both the S. aureus and A. baumannii UppS in vitro biochemical assay use a pyrophosphatase and Biomol
(§2) 369 Green Phosphate detection reagent to assess catalytic activity. These assays were based on previously
(§3) 370 described assays both within GSK and others11-13. Briefly, the enzyme will add up to 8 isopentyl
(§4) 371 pyrophosphate (IPP) units onto a farnesyl pyrophosphate FPP molecule, resulting in the production of 8
(§5) 372 moles of inorganic pyrophosphates per mole of substrate added. The pyrophosphate is then converted
(§6) 373 to inorganic phosphate by a pyrophosphatase, and this phosphate is detected by Biomol Green. The
(§7) 374 assay is conducted in buffer containing 100 mM Trizma pH7.5, 1 mM MgCl2, 6 mM CHAPS and 0.005% […]
(§8) 378 10 μL. The detection reagent was incubated for 20 min and 610-620 nm light was monitored by a Perkin
(§9) 379 Elmer Envision plate reader. […]
(§10) 383 Standard deviation values were calculated using the n-1 method. […]
(§11) 388 A fluorescence intensity coupled assay was used to measure the in vitro biochemical activity of S. aureus […]
(§12) 391 enzyme then digests the liberated peptide GFGF-AFC releasing the AFC causing a fluorescence increase
(§13) 392 monitored by an Envision plate reader. […]
(§14) 395 90 minute incubation with quench/detection solution, plates were read on an envision plate reader with […]
(§15) 406 A fluorescence intensity coupled assay was used to measure the in vitro biochemical activity of M. […]

In a further experiment the target is A. baumannii UppS (Acinetobacter baumannii, UniProt V5VCK8). As to the kind of experiment: UppS biochemical assay (pyrophosphatase / Biomol Green). The conditions noted are these: average of two replicates with s.d.
Source text: as §1, §2, §3, §4, §5, §6, §7, §8, §9, §10, §11, §12, §13, §14, §15

The test system of experiment [6] is Acinetobacter baumannii BM4652 ΔadeABC ΔadeIJK (efflux mutant). As to the kind of experiment: MIC broth microdilution. It is filed as cell-based.
The test system of experiment [7] is Escherichia coli 7623 ΔtolC. As to the kind of experiment: MIC broth microdilution. It is filed as cell-based.
The subject of experiment [8] is Klebsiella pneumoniae 1161486a ΔtolC. As to the kind of experiment: MIC broth microdilution. It is filed as cell-based.
Experiment [9] relates to Pseudomonas aeruginosa PA0322 Δ(mexAB-oprM) Δ(mexCD-oprJ) Δ(mexEF-oprN). As to the kind of experiment: MIC broth microdilution. It is filed as cell-based.
Experiment [10] deals with Acinetobacter baumannii ATCC 19606-1 ΔLpxC. As to the kind of experiment: MIC broth microdilution. In kind it is cell-based. The following applies: ATCC19606.
In experiment [11] the test system is Haemophilus influenzae H128 ΔacrB. As to the kind of experiment: MIC broth microdilution. In kind it is cell-based.
Experiment [12] concerns A. baumannii BM4652 efflux mutant, pRK415 and pRK415-UppS. As to the kind of experiment: microbe, parasite or virus in culture. In kind it is cell-based, Acinetobacter baumannii.
The mark [13] stands for this setting: S. aureus WCUH29 wild type, read-out: MIC.

Sequence of A. baumannii UppS (V5VCK8 entry or part of it): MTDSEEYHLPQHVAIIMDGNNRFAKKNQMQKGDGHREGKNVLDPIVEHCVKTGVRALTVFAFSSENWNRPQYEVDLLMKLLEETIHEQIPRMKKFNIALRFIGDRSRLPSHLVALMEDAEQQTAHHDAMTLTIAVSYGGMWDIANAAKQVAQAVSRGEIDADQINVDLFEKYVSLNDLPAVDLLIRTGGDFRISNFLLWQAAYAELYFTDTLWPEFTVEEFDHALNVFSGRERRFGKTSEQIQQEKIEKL
Sequence of S. aureus methionyl-tRNA synthetase (MRS) (Q5HII6 whole entry): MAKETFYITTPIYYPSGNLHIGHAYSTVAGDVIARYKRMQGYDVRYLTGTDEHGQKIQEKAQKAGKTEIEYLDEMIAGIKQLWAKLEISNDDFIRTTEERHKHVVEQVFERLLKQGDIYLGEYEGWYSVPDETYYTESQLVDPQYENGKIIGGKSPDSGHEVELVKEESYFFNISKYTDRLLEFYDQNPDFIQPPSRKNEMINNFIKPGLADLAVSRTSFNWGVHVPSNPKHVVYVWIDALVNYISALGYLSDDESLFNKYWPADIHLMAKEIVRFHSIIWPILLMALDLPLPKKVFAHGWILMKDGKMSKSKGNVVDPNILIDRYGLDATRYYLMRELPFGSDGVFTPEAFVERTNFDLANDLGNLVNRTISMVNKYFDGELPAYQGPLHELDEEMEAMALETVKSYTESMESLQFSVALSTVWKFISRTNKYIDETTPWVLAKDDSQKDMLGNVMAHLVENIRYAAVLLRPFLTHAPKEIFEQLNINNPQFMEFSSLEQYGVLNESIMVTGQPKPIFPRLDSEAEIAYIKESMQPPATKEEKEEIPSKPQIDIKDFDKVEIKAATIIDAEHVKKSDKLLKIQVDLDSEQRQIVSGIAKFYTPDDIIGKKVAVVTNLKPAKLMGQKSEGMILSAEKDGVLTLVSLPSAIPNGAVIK
Sequence of S. aureus methionine aminopeptidase, MetAP (P0A078 whole entry): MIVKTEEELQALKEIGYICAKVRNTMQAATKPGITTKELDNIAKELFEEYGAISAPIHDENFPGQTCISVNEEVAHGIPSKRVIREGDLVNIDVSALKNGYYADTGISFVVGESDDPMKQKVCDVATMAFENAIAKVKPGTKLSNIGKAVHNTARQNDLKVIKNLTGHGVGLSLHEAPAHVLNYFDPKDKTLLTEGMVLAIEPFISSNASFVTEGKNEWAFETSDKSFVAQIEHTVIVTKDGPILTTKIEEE
Sequence of S. aureus isoleucyl-tRNA synthetase (IRS) (P41972 whole entry): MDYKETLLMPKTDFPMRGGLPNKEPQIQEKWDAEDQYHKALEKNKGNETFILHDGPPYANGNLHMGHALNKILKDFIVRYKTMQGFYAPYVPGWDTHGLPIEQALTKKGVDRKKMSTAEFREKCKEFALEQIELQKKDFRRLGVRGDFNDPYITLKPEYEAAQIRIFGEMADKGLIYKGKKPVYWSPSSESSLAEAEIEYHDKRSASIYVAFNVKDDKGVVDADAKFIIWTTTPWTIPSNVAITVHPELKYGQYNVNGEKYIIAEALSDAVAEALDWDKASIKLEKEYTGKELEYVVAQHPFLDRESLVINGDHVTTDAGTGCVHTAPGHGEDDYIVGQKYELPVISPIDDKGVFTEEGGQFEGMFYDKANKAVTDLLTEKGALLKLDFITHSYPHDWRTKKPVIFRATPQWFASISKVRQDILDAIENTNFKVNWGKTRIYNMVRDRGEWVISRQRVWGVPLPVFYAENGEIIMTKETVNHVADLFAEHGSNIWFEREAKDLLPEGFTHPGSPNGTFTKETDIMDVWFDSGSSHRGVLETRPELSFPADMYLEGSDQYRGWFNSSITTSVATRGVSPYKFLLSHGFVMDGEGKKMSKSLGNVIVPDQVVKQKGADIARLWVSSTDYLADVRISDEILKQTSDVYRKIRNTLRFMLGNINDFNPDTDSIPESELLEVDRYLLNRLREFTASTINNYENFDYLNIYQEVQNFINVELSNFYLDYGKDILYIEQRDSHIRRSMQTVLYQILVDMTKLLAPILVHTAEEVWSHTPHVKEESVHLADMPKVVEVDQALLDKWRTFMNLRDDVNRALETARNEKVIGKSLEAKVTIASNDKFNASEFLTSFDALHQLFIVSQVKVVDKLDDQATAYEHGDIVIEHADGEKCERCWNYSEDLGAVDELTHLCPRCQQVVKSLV

As usually defined, the IC50 is the point on the concentration scale where inhibition reaches its midpoint. A high value points to weaker potency. As to `CNC(=O)c1ccc2c(c1)nc(-c1ccc(Br)c(O)c1)n2C(CNC(=O)COc1ccccc1C(C)(C)C)c1ccc(OC)c(OC)c1` (stereo not shown) [Compound 1], the IC50 in [1] amounted to 0.00083 ± 5e-05 µM. For the same molecule, the MIC in [2] (setting [13]) was found to be 0.5 µg/mL (≈ 0.699 µM); in [3] (S. aureus RN4220 pYH4-MRS (induced with 0.1 µg/ml anhydrotetracycline)) it was 64 µg/mL (≈ 89.4 µM); in experiment [3] (S. aureus RN4220 pYH4-MRS overexpressor (uninduced)), 4 µg/mL (≈ 5.59 µM); in experiment [3] (S. aureus RN4220 pYH4 vector alone) it was 0.5 µg/mL (≈ 0.699 µM). In addition, the MIC increase in [3] (MRS overexpressor induced with 0.1 μg ml^−1 anhydrotetracycline vs vector control strain) is given as above 128 fold; in [3] (MRS overexpressor uninduced vs vector control strain), 8 fold.

In experiment [4], `CNC(=O)c1cccc(CNCc2cc(C(=O)N3CCN(c4cc(Cl)cc(Cl)c4)CC3)cc(C(C)(C)C)c2)c1` [Compound 2] showed an IC50 of 0.75 ± 0.21 µM. The MIC in experiment [2] (setting [13]) worked out at 4 µg/mL (≈ 7.05 µM).

In the case of `Cc1nnc(Cn2c(C(C)Cc3ccc4c(c3)OCO4)nc3cccc(Cl)c32)[nH]1` (stereo not shown) [Compound 3], it took 0.35 ± 0.01 µM to reach half-maximal inhibition in experiment [5] (IC50). Also, the antibacterial activity result in experiment [2] (S. aureus) was “lacked S. aureus antibacterial activity; also recorded: lacks antibacterial activity”. Further, in experiment [2] (setting [13]), the MIC is above 128 µg/mL.

Molecule `CNC(=O)[C@@H](NC(=O)c1cc(Cl)c(Cl)cc1C(=O)NCc1ccc(C(C)(C)C)cc1)C(C)(C)C` [Compound 5] returned a half-inhibitory concentration (IC50) against A. baumannii UppS of 0.043 ± 0.025 µM. The MIC in experiment [2], in experiment [6] (A. baumannii BM652 efflux strain), in experiment [6] (A. baumannii BM4652 ΔadeABC ΔadeIJK efflux mutant), in experiment [7], in experiment [8] and in experiment [9] was above 128 µg/mL in each case. Further, the MIC is below 0.125 µg/mL in experiment [10]; 1 µg/mL (≈ 1.97 µM) in [11]; 2 µg/mL in experiment [12] (A. baumannii BM4652 efflux mutant + pRK415-UppS, 30 μg/ml polymyxin B nonapeptide); 0.25 µg/mL in experiment [12] (A. baumannii BM4652 efflux mutant + pRK415, 30 μg/ml polymyxin B nonapeptide); 2 µg/mL in experiment [12] (Acinetobacter baumannii, A. baumannii BM4652 efflux mutant + pRK415-UppS, 30 μg/ml polymyxin B nonapeptide); 0.25 µg/mL in [12] (Acinetobacter baumannii, A. baumannii BM4652 efflux mutant + pRK415, 30 μg/ml polymyxin B nonapeptide). In addition, the MIC in experiment [12] (Acinetobacter baumannii, A. baumannii BM4652 efflux mutant, N/A (no plasmid), 30 μg/ml polymyxin B nonapeptide) was 0.25 µg/mL; in experiment [12] (Acinetobacter baumannii, without the permeabilising agent) it was above 128 µg/mL. Moreover, the “Fold MIC increase” value in experiment [12] (pRK415-UppS overexpressing strain relative to parent strain, 30 μg/ml polymyxin B nonapeptide) was found to be 8 fold.

For the origin of these results see paper PMC5520047, “Prioritizing multiple therapeutic targets in parallel using automated DNA-encoded library screening” (Nature Communications, 2017).
